The results in this text go back to patent publication US20170021023A1 (RESDEVCO RESEARCH AND DEVELOPMENT CO. LTD., priority 2005, published 2017).

The test system of one data set is epithelial conical cells. Kind of data set: Rabbit eye drop treatment for 3 months, electron microscopy of epithelial cells. Format: in vivo, rabbits. To be noted: preservatives such as benzalkonium chloride, cetrimonium bromide, sodium ethylene diamine tetraacetate. The method, then: 3 rabbits were treated for 3 months twice daily with eye drops, adjusted to pH 7.0. The average cross section of the epithelial conical cells and the percentage of damaged cells were evaluated by electron microscopy.

Another data set relates to dry eye patients. Kind of data set: Fluorescein Break Up Time (BUT) study in dry eye patients. To be noted: concentration of 0.002%. Format: in vivo, human. From the text:
The advantages resulting from the addition of a surface active agent include a decrease in the surface tension of the aqueous solution, thereby increasing the spread. […] It is accepted that a BUT of 10 sec. or less indicates dry eye syndrome; see Example 11 below.

For `OCC(O)CO` [glycerol], the “Effect on conical cell damage caused by preservatives” value with epithelial conical cells is “counteracts conical cell damage”.

With polysorbate 80, the “Effect on diminished Break Up Time (BUT)” value in the data set with dry eye patients is “increases the diminished Break Up Time (BUT)”.
